The values below come from EP1613294B1, “PEPTIDES AND DERIVATIVES THEREOF AS INHIBITORS OF OXIDATIVE DAMAGE OF THE SKIN” (Bottega Verde S.r.l., priority 2003, dated 2004).

A short description of data set [1]: HNE quenching activity in homogeneous phase (HNE consumption by HPLC). Format: biochemical. As to conditions: 200 µM HNE, 37°C, average ± S.D of 4 determinations; for RESIDUAL HNE (%) 1 hr of incubation: phosphate buffer 10 mM pH 7.4, 1 hr; for RESIDUAL HNE (%) 24 hrs of incubation: phosphate buffer 10 mM pH 7.4, 24 hrs. From the text:
4-hydroxy-trans-nonenal (HNE) was used throughout the study, as the prototype of α,β-unsaturated aldehydes since it represents the main oxidative degradation product of ω-6 polyunsaturated fatty acids, such as arachidonic and linoleic acids, and it is formed in large amount in the skin under different patho-physiological conditions, such as intrinsic and photo-induced skin aging [Tanaka N, Arch Dermatol Res, 293, 363-367, 2001].
A homogeneous phase model was first used to evaluate the ability of H-His-Tyr-OH and H-Tyr-His-OH to react and deactivate the cytotoxic agent HNE (quenching activity). In particular, the di-peptides were incubated at 37°C in a phosphate buffer, 10 mM pH 7.4, in the presence of 200 µM HNE. HNE consumption was determined after 1 hour and 24 hours of incubation by HPLC analysis, under the following experimental conditions: HP1050 (Hewlett Packard, Milano, Italy) equipped with a quaternary pump, self-sampling, on-line degasser, UV/VIS photodiode detector. The separations were performed by means of a Supelco LC18 column (25 cm x 4.6 mm i.d.; particle size 5 µm) and an isocratic elution system: 60% of phase A (H2O/CH3CN/HCOOH 90/1.0/0.] v/v/v) and 40% of phase B (H2O/CH3CN 10/90 v/v/v).
The values are expressed as the average ± S.D of 4 determinations.

A short description of data set [2]: Antioxidant activity, fluorimetric assay of R-Phicoerytrine (RPE) oxidation by AAPH-generated peroxyl radicals. It counts as biochemical. As to conditions: substance at 25 µM; average ± S.D of 4 determination. The procedure: The amount of RPE oxidation is determined by fluorimetric analysis and the results are expressed as Trolox equivalents (reference compound).
(the hydrophilic analogue of vitamin E).
The values are the average ± S.D of 4 determination

In data set [3] the test system is keratinocytes (NCTC 2544 human cell line). Nature of the data set: Cytoprotection of keratinocytes exposed to UVB and HNE (morphology, cell viability by calcein assay). Format: cell-based. As to conditions: for protective effect (morphological analyses and recovery in cell viability): added to incubation medium concomitant to HNE and UVB exposure, result in words. The procedure: The experimental model involves the exposure of the cellular mono-layer to the minimal UVB erythematal dose, MED=50 mJ/cm^2, (Vilber Lourmat VLX-3W radiometer equipped with a UVB probe at 312 nm)and, 4 hours of post-incubation, to the HNE insult (70 nmoles/mg protein).
The combination of physical (UVB) and chemical (HNE) stress is used to simulate the conditions of cellular damage of the skin during the cutaneous intrinsic and photo-induced aging process.

For data set [4], the system named is human kcratinocytcs cell line (NCTC 2544 human cell line). Nature of the data set: Antioxidant cell protection of keratinocytes against AAPH-induced oxidative damage (MTT, morphology, lipid peroxidation with BODIPY 581/591). It counts as cell-based. As to conditions: 6 hours exposure to 40 mM AAPH. The procedure:
The H-His-Tyr-OH and H-Tyr-His-OH antioxidant activity was subsequently devaluated in a cellular model using human kcratinocytcs cell line (NCTC 2544 human cell line, Flow Laboratories, Irvine, UK), subjected to oxidative damage induced by a flux of peroxyl radicals generated by the radical initiator 2,2'-azobis([…]) dihydrochloride (AAPH). The following parameters were evaluated as markers of cellular damage: mitochondrial functionality as an index of cell viability (MTT assay), cellular morphology (phase contrast microscopic examinations), and lipid peroxidation, using 4,4-difluoro-5-(4-phenyl-1,3-butadienyl)-4-bora-3a,4a-diazo-s-indacene-3-undecanoic acid(BODIPY 581/591) as membrane fluorescent probe [Pap et al, FEBS Lett. 453:278-282, 1999]. A dramatic cytotoxic effect was observed after 6 hours exposure to 40 mM AAPH(fig.5).
The addition of H-His-Tyr-OH to the incubation medium causes a significant and dose-dependent cell protection, which is significant for all the parameters considered, already at 0.5 mM, with a total protection at 10 mM (fig. 5).

Data set [5] is described as follows: Copper (II) chelation by spectrophotometric analysis. As to conditions: phosphate buffer (1 mM), 37°C, 1 mM copper sulphate (1:1 molar ratio); free copper (II) band at 800 nm disappears. It counts as physicochemical. The procedure:
For this purpose, first we evaluated the ability of H-His-Tyr-OH and H-Tyr-His-OH to chelate copper (II) by spectro-photometric analysis. The peptides are dissolved in phosphate buffer (1 mM) and incubated at 37°C with 1 mM copper sulphate (1:1 molar ratio).

Peptide text beside a SMILES is read from it.

Consider `N=C(N)NN` [Amino guanidine, reference compound], for which, in data set [1], the “RESIDUAL HNE (%) 1 hr of incubation” value amounted to 95.31 ± 0.08% and the “RESIDUAL HNE (%) 24 hrs of incubation” value is recorded as 72.04 ± 3.97%.

Take `NCCC(=O)N[C@@H](Cc1cnc[nH]1)C(=O)O` [Carnosine, reference compound]: the “TROLOX equivalent” value in data set [2] worked out at 4.94 ± 0.3 µM.

As for `NC(Cc1cnc[nH]1)C(=O)NC(Cc1ccc(O)cc1)C(=O)O` (stereo not drawn) [H-His-Tyr-OH] (H-His-Tyr-OH; configuration not given here), the EC100 in data set [3] (Homo sapiens, NCTC-2544, light or radiation study, UVB 50 mJ/cm^2 + HNE 70 nmoles/mg protein, determined 6 hours after the addition of HNE, read-out: concentration at which cells are completely protected (morphological analysis)) is 20000 µM; in data set [4] (read-out: concentration giving total protection), 10000 µM. Besides, the minimal effective concentration in data set [3] (Homo sapiens, NCTC-2544, light or radiation study, UVB 50 mJ/cm^2 + HNE 70 nmoles/mg protein, determined 6 hours after the addition of HNE, read-out: concentration at which the cytoprotective activity is already significant) is 2000 µM; in data set [4] (mitochondrial functionality, morphology, lipid peroxidation, read-out: concentration at which cell protection is already significant for all the parameters considered), 500 µM. For the same compound, in data set [3], the “protective effect (morphological analyses and recovery in cell viability)” value was “dose-dependent protective effect”. Moreover, the “TROLOX equivalent” value in data set [2] came out at 16.90 ± 0.54 µM. Further, the “RESIDUAL HNE (%) 1 hr of incubation” value in data set [1] was determined as 80.16 ± 7.57%. The “RESIDUAL HNE (%) 24 hrs of incubation” value in data set [1] turned out to be 15.41 ± 0.49%. Besides, the “λmax of the absorption band of the peptide-copper(II) complex” value in data set [5] worked out at 650 nm.

For `NC(Cc1ccc(O)cc1)C(=O)NC(Cc1cnc[nH]1)C(=O)O` (stereo not drawn) [H-Tyr-His-OH] (H-Tyr-His-OH; configuration not given here), in data set [3], the “protective effect (morphological analyses and recovery in cell viability)” value was “dose-dependent protective effect”. In addition, in data set [2], the “TROLOX equivalent” value was determined as 17.28 ± 0.89 µM. In addition, in data set [1], the “RESIDUAL HNE (%) 1 hr of incubation” value was 85.31 ± 6.29% and the “RESIDUAL HNE (%) 24 hrs of incubation” value is recorded as 20.02 ± 4.09%. In addition, the “λmax of the absorption band of the peptide-copper(II) complex” value in data set [5] turned out to be 600 nm.

With `Cc1c(C)c2c(c(C)c1O)CCC(C)(C(=O)O)O2` (stereo not drawn) [Trolox, reference compound], the “TROLOX equivalent” value in data set [2] worked out at 25 µM.
